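1) Cells in 96-well plates. 2) Compound, 48 h, 5 concentrations. 3) Linear interpolation between surrounding doses. 4) Unreached endpoint = highest concentration. TGI is the concentration that stops growth completely.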
How the values were obtained:
Assay in all cases: inhibition of tumour cell growth, NCI panel, 48 h
DMS 273 small cell lung = test system: DMS 273 small cell lung
SF-295 CNS = test system: SF-295 CNS
UO-31 renal = test system: UO-31 renal
NCI-H460 lung = test system: NCI-H460 lung
NCI-H23 lung = test system: NCI-H23 lung
KM20L2 colon = test system: KM20L2 colon
SK-MEL-5 melanoma = test system: SK-MEL-5 melanoma
A498 renal = test system: A498 renal
SK-MEL-2 melanoma = test system: SK-MEL-2 melanoma
HT29 colon = test system: HT29 colon
COLO 205 colon = test system: COLO 205 colon
RXF 393 renal = test system: RXF 393 renal
HCC-2998 colon = test system: HCC-2998 colon
IGROV1 ovarian = test system: IGROV1 ovarian
ACHN renal = test system: ACHN renal
SF-539 CNS = test system: SF-539 CNS
SK-MEL-28 melanoma = test system: SK-MEL-28 melanoma
SNB-19 CNS = test system: SNB-19 CNS
DLD-1 colon = test system: DLD-1 colon
UACC-257 melanoma = test system: UACC-257 melanoma
UACC-62 melanoma = test system: UACC-62 melanoma
EKVX NSCLC = test system: EKVX NSCLC
786-0 renal = test system: 786-0 renal
SW-620 colon = test system: SW-620 colon
SR leukemia = test system: SR leukemia
SF-268 CNS = test system: SF-268 CNS
SNB-75 CNS = test system: SNB-75 CNS
RPMI-8226 leukemia = test system: RPMI-8226 leukemia
HCT-116 colon = test system: HCT-116 colon
SNB-78 CNS = test system: SNB-78 CNS
DMS 114 small cell lung = test system: DMS 114 small cell lung
HOP-92 NSCLC = test system: HOP-92 NSCLC
SK-OV-3 ovarian = test system: SK-OV-3 ovarian
M19-MEL melanoma = test system: M19-MEL melanoma
KM12 colon = test system: KM12 colon
HL-60(TB) leukemia = test system: HL-60(TB) leukemia
SN12C renal = test system: SN12C renal
OVCAR-8 ovarian = test system: OVCAR-8 ovarian
OVCAR-5 ovarian = test system: OVCAR-5 ovarian
TK-10 renal = test system: TK-10 renal
A549 NSCLC = test system: A549 NSCLC
U251 CNS = test system: U251 CNS
MALME-3M melanoma = test system: MALME-3M melanoma
LXFL 529 NSCLC = test system: LXFL 529 NSCLC
HOP-62 NSCLC = test system: HOP-62 NSCLC
OVCAR-4 ovarian = test system: OVCAR-4 ovarian
K-562 leukemia = test system: K-562 leukemia
NCI-H226 lung = test system: NCI-H226 lung
CCRF-CEM leukemia = test system: CCRF-CEM leukemia
NCI-H522 lung = test system: NCI-H522 lung
CAKI-1 renal = test system: CAKI-1 renal
LOX IMVI melanoma = test system: LOX IMVI melanoma
M14 melanoma = test system: M14 melanoma
OVCAR-3 ovarian = test system: OVCAR-3 ovarian
HCT-15 colon = test system: HCT-15 colon
MOLT-4 leukemia = test system: MOLT-4 leukemia
T-47D breast = test system: T-47D breast
MDA-MB-231 breast = test system: MDA-MB-231 breast
MDA-N = test system: MDA-N
MDA-MB-435 = test system: MDA-MB-435
NCI/ADR-RES ovarian = test system: NCI/ADR-RES ovarian
DU-145 prostate = test system: DU-145 prostate
BT-549 breast = test system: BT-549 breast
PC-3 prostate = test system: PC-3 prostate
HS 578T breast = test system: HS 578T breast
MCF7 breast = test system: MCF7 breast

Measured: TGI

COC(=O)c1nc(-c2ccc(Cl)c(Cl)c2)nc2ccc(Cl)cc12
84.1 µM: SF-539 CNS
43.1 µM: SK-OV-3 ovarian
51.3 µM: SNB-75 CNS
37.7 µM: HOP-92 NSCLC
73 µM: 786-0 renal
63.5 µM: RXF 393 renal
not listed: HOP-62 NSCLC | OVCAR-4 ovarian | K-562 leukemia | NCI-H226 lung | CCRF-CEM leukemia | NCI-H522 lung | CAKI-1 renal | LOX IMVI melanoma | M14 melanoma | OVCAR-3 ovarian | HCT-15 colon | MOLT-4 leukemia | T-47D breast | MDA-MB-231 breast | MDA-N | MDA-MB-435 | NCI/ADR-RES ovarian | DU-145 prostate | BT-549 breast | PC-3 prostate | HS 578T breast | MCF7 breast
> 100 µM: all other assays above

CN(C)c1ccc(C=NC23CC4CC(CC(C4)C2)C3)cc1
not listed: SK-MEL-5 melanoma | DLD-1 colon | SNB-75 CNS | HOP-92 NSCLC | LXFL 529 NSCLC | T-47D breast | MDA-MB-231 breast | MDA-N | MDA-MB-435 | NCI/ADR-RES ovarian | DU-145 prostate | BT-549 breast | PC-3 prostate | HS 578T breast | MCF7 breast
> 100 µM: all other assays above

CC(SC(=S)Nc1cccc(F)c1)C(=O)O (stereo not given)
11 µM: IGROV1 ovarian
36.4 µM: UACC-62 melanoma
84.9 µM: U251 CNS
24.5 µM: DMS 273 small cell lung
68 µM: NCI-H460 lung
52.7 µM: SF-295 CNS
59.6 µM: HOP-62 NSCLC
34.9 µM: NCI-H522 lung
> 100 µM: HT29 colon | OVCAR-4 ovarian | HCC-2998 colon | ACHN renal | EKVX NSCLC | 786-0 renal | SW-620 colon | SNB-78 CNS | CAKI-1 renal | SN12C renal | OVCAR-5 ovarian | TK-10 renal | OVCAR-3 ovarian | A549 NSCLC
44.3 µM: NCI-H226 lung
30.8 µM: SR leukemia
29.1 µM: RXF 393 renal
38 µM: SF-539 CNS
55.3 µM: CCRF-CEM leukemia
52.3 µM: NCI-H23 lung
32.6 µM: SF-268 CNS
37.6 µM: HCT-116 colon
76 µM: OVCAR-8 ovarian
35 µM: M14 melanoma
32.4 µM: LOX IMVI melanoma
29.4 µM: HL-60(TB) leukemia
46.5 µM: SK-MEL-2 melanoma | MOLT-4 leukemia
34.3 µM: RPMI-8226 leukemia
83.7 µM: HCT-15 colon
74.5 µM: UO-31 renal
31.7 µM: DMS 114 small cell lung
38.9 µM: K-562 leukemia
69.1 µM: LXFL 529 NSCLC
77 µM: A498 renal
32.1 µM: SK-MEL-28 melanoma
33.5 µM: UACC-257 melanoma
90.8 µM: KM20L2 colon
99.6 µM: SNB-19 CNS

O=Cc1ccc(-c2nccc3c2[nH]c2ccccc23)o1
> 56.2 µM: LOX IMVI melanoma
> 55.9 µM: UACC-257 melanoma
41.4 µM: CAKI-1 renal
9.86 µM: NCI-H226 lung
> 81.9 µM: RXF 393 renal
98.6 µM: HOP-92 NSCLC
51.2 µM: SF-295 CNS
1.46 µM: A498 renal
not listed: DMS 273 small cell lung | KM20L2 colon | DLD-1 colon | SNB-78 CNS | DMS 114 small cell lung | M19-MEL melanoma | LXFL 529 NSCLC
> 100 µM: all other assays above

O=c1[nH]c2cc(Cl)ccc2nc1/C(=N/Nc1ccccc1)C(O)c1ccco1 (stereo not given)
not listed: DMS 273 small cell lung | KM20L2 colon | DLD-1 colon | SNB-78 CNS | DMS 114 small cell lung | M19-MEL melanoma | LXFL 529 NSCLC
> 100 µM: all other assays above
